Assays:
EphA2(h) = target: T1, EphA2(h) (Homo sapiens, UniProt P29317); assay: KinaseProfiler assay (Upstate), EphA2; format: biochemical
T1 construct: purchased Upstate Biotechnology (Dundee, UK), KinaseProfiler service
Experimental: (§1) Further enzyme assays were conducted at Upstate Biotechnology (Dundee, UK) in the KinaseProfiler™ Assay system.
(§2) The general protocol is as follows. All kinases are pre-diluted to a 10× working concentration prior to addition into the assay. The composition of the dilution buffer for the kinases is 20 mM MOPS pH 7.0, 1 mM EDTA, 0.1% β-mercaptoethanol, 0.01% Brij-35, 5% glycerol, 1 mg/ml BSA. All substrates are dissolved and diluted to working stocks in de-ionised water.
In a final reaction volume of 25 EphA2 (h) (5-10 mU) is incubated with 8 mM MOPS pH 7.0, 0.2 mM EDTA, 0.1 mg/ml poly(Glu, Tyr) 4:1, 10 mM MgAcetate and [γ-33P-ATP] (specific activity approx. 500 cpm/pmol, concentration as required). The reaction is initiated by the addition of the MgATP mix. After incubation for 40 minutes at room temperature, the reaction is stopped by the addition of 5 μl of a 3% phosphoric acid solution. 10 μl of the reaction is then spotted onto a Filtermat A and washed three times for 5 minutes in 75 mM phosphoric acid and once in methanol prior to drying and scintillation counting.

Lck(h) = target: T2, Lck(h) (Homo sapiens, UniProt P06239); assay: KinaseProfiler assay (Upstate), Lck; format: biochemical
T2 construct: purchased Upstate Biotechnology (Dundee, UK), KinaseProfiler service
Experimental: as §1, §2
(§3) In a final reaction volume of 25 μl, Lck (h) (5-10 mU) is incubated with 50 mM Tris pH 7.5, 0.1 mM EGTA, 0.1 mM Na3VO4, 250 μM […] (Cdc2 peptide), 10 mM MgAcetate and [γ-33P-ATP] (specific activity approx. 500 cpm/pmol, concentration as required). The reaction is initiated by the addition of the MgATP mix. After incubation for 40 minutes at room temperature, the reaction is stopped by the addition of 5 μl of a 3% phosphoric acid solution. 10 μl of the reaction is then spotted onto a P30 filtermat and washed three times for 5 minutes in 75 mM phosphoric acid and once in methanol prior to drying and scintillation counting.

[1] = target: T3, kinase domain of human c-kit (Homo sapiens, UniProt P10721); assay: Alphascreen protein tyrosine kinase assay, c-KIT; format: biochemical
T3 construct: from codon M552 to end; made in house; host or cells: Sf9 insect cells (baculovirus)
Experimental: For screening purposes, compounds were diluted in 96 well plates at a concentration of 20 μM. Plates were warmed at 37° C. for 30 minutes before assay.
The kinase domain of human c-kit from codon M552 to end was cloned into the pDEST-20 expression vector (Invitrogen). The c-kit plasmid was then transformed into competent DH10Bac cells (Gibco), and the recombinant baculovirus produced prepared for transfection into Sf9 insect cells.
Baculovirus preparations from each of construct were infected into five liters of SF9 cells (Invitrogen) grown in SF-900 medium (Invitrogen) to a cell density of approximately 1−2×10^6 cells/ml. […] Cells were harvested and lysed. Tyrosine kinase domains were purified by affinity chromatography on a glutathione-agarose column (Scientifix Pty. Ltd. catalog #: GSH-200).
Kinase assays were performed in 384 well Optiplates (Packard) using an Alphascreen Protein Tyrosine Kinase kit. […] Alphascreen phosphotyrosine acceptor beads followed by streptavidin donor beads were added under subdued light. The Alphascreen plates were read on a Packard Fusion Alpha. Inhibitors were added to the assays thirty minutes prior to the addition of ATP. Inhibitors were added in aqueous DMSO, with DMSO concentrations never exceeding 1%.

Flt4(h) = target: T4, Flt4(h) (Homo sapiens, UniProt P35916); assay: KinaseProfiler assay (Upstate), Flt4; format: biochemical
T4 construct: purchased Upstate Biotechnology (Dundee, UK), KinaseProfiler service
Experimental: as §1, §2

Hck(h) = target: T5, Hck(h) (Homo sapiens, UniProt P08631); assay: KinaseProfiler assay (Upstate), Hck; format: biochemical
T5 construct: purchased Upstate Biotechnology (Dundee, UK), KinaseProfiler service
Experimental: as §1, §2
as §3, with “μl, Hck” for “μl, Lck”, “with 8” for “with 50”, “mM MOPS” for “mM Tris”, “pH 7.0, 0.2” for “pH 7.5, 0.1”, “mM EDTA,” for “mM EGTA, 0.1 mM Na3VO4,”

PDGFR β tyrosine kinase = target: T6, PDGFR β tyrosine kinase (Homo sapiens, UniProt P09619); assay: Alphascreen protein tyrosine kinase assay, PDGFRβ; format: biochemical
T6 construct: purchased Upstate Cell Signalling Solutions, CA, USA 14-463

mNFS-60 = assay: Cellular assay (Alamar Blue), mNFS-60 with human M-CSF; format: cell-based; conditions: human M-CSF at 20 ng/ml, 72 hr
Experimental: Cells for the assays were prepared by harvesting cells from culture, and then diluting them in the appropriate growth medium to between 40,000 cell/mL and 600,000 cell/mL, depending on the cell line.
The compounds to be tested were added (104, 10× final concentration) to a flat bottomed 96-well plate. The cellular suspension (80 μL per well) was added, and one hour later the growth factor was added (human M-CSF at 20 ng/ml for mNFS-60, mouse IL-3 at 5 ng/ml for Baf3-WT). The plate was then incubated for 72 hr at 37° C., 5% CO2. Alamar Blue (10^4 per well) was added and the plates returned to the incubator for a further 4-8 hours.
The plates were then read using a fluorescence plate reader at excitation 544 nm and emission 590 nm.

PTK5(h) = target: T7, PTK5(h) (Homo sapiens, UniProt P42685); assay: KinaseProfiler assay (Upstate), PTK5; format: biochemical
T7 construct: purchased Upstate Biotechnology (Dundee, UK), KinaseProfiler service
Experimental: as §1, §2

T1 sequence (P29317 24-976): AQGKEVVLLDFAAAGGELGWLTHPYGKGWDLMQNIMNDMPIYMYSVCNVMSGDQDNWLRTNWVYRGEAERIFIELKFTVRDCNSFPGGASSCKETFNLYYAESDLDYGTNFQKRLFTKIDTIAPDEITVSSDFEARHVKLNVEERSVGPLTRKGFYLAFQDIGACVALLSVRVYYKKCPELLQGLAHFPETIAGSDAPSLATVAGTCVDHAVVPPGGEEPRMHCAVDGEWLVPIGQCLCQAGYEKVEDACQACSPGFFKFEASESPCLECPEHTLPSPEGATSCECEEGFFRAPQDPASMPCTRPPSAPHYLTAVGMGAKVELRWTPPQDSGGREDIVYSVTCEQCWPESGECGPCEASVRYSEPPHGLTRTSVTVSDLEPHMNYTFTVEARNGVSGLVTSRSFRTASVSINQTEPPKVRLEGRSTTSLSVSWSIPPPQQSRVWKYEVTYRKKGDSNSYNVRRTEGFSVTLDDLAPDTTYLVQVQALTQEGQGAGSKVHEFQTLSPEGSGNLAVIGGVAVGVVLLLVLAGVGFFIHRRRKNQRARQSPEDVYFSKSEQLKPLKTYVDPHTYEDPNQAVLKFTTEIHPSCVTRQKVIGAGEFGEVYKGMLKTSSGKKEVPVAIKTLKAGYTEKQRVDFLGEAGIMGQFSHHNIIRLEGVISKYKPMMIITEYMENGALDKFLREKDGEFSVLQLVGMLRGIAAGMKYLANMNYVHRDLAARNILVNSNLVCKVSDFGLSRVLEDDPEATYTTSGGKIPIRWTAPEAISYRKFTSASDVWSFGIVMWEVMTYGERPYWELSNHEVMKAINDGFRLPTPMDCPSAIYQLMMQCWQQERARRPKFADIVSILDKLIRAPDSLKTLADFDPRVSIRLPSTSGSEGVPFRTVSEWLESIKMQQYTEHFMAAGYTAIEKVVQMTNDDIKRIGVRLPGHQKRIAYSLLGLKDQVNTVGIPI
T7 sequence (P42685 whole entry): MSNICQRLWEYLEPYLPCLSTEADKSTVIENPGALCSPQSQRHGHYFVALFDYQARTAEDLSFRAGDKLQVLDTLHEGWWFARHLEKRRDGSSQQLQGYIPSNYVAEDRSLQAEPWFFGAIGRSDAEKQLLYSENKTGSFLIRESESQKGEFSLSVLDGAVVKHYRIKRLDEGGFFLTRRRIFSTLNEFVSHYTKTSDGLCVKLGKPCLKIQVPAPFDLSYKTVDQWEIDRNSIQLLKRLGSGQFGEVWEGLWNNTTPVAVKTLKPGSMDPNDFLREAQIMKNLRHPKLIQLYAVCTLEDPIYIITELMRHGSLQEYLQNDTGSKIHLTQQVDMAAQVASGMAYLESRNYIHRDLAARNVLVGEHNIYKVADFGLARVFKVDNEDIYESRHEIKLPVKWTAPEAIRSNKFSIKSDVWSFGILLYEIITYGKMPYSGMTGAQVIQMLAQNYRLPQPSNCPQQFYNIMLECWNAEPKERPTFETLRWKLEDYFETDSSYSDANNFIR
T5 sequence (P08631 whole entry): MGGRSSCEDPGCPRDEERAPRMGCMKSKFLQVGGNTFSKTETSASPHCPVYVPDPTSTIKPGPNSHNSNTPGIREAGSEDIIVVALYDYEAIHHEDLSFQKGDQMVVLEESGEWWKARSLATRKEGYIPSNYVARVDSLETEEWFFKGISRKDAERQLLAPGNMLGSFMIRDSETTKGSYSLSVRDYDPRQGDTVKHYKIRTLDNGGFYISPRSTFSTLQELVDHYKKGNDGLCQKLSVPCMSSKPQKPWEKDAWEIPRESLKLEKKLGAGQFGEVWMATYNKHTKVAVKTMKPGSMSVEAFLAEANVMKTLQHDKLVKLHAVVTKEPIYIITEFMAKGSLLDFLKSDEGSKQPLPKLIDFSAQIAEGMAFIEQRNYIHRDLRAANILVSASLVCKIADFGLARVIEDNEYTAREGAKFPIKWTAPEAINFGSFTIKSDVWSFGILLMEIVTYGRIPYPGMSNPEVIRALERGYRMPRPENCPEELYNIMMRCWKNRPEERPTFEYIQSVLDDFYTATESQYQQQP
T2 sequence (P06239 whole entry): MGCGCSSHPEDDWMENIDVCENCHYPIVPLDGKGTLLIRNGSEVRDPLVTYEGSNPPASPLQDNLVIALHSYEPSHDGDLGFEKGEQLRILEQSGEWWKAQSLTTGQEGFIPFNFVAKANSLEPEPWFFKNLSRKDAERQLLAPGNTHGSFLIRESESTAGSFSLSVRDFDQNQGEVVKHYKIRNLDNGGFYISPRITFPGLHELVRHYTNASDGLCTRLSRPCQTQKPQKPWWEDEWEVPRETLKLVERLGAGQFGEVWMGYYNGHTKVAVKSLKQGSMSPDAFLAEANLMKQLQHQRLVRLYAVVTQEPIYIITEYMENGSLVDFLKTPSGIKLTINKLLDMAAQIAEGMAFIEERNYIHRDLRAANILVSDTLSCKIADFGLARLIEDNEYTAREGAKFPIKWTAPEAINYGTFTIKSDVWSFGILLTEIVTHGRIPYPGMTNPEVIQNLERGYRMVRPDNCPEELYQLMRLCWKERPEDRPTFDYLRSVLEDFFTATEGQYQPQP
T4 sequence (P35916 25-1363): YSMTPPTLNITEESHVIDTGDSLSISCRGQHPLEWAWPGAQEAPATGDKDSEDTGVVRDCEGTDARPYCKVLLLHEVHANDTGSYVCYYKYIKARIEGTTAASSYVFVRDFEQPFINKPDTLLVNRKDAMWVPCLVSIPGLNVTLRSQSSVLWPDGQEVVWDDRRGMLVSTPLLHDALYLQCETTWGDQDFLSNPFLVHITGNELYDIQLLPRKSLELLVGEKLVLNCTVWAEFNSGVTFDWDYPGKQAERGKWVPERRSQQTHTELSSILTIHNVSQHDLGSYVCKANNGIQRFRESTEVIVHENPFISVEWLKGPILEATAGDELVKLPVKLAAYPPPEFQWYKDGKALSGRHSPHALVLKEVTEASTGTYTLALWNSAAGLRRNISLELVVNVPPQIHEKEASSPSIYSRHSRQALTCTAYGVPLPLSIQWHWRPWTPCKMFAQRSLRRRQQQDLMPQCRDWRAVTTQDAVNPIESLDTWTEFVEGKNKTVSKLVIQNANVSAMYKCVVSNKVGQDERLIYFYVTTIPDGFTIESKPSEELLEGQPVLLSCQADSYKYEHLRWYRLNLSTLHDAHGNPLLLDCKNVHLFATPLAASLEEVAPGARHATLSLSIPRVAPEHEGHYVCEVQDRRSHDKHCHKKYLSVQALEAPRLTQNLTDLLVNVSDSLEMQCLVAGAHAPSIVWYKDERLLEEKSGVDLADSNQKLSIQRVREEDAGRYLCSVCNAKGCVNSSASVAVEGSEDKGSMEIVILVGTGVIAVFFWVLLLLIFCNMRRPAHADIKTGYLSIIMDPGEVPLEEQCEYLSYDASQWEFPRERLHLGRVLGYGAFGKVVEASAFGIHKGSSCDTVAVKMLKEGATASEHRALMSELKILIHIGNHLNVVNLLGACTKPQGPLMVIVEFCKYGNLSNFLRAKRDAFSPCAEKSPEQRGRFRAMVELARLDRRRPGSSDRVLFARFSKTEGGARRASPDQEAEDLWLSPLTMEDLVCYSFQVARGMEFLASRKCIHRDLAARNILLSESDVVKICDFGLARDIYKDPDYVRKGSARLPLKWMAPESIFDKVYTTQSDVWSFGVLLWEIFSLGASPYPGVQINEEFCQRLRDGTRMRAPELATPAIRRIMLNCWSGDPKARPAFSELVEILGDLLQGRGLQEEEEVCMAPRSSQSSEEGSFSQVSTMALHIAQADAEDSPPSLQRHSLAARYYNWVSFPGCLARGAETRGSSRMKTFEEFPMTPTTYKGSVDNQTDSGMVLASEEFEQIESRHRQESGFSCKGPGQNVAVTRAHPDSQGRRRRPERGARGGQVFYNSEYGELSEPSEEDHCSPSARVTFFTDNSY
T6 sequence (P09619 33-1106): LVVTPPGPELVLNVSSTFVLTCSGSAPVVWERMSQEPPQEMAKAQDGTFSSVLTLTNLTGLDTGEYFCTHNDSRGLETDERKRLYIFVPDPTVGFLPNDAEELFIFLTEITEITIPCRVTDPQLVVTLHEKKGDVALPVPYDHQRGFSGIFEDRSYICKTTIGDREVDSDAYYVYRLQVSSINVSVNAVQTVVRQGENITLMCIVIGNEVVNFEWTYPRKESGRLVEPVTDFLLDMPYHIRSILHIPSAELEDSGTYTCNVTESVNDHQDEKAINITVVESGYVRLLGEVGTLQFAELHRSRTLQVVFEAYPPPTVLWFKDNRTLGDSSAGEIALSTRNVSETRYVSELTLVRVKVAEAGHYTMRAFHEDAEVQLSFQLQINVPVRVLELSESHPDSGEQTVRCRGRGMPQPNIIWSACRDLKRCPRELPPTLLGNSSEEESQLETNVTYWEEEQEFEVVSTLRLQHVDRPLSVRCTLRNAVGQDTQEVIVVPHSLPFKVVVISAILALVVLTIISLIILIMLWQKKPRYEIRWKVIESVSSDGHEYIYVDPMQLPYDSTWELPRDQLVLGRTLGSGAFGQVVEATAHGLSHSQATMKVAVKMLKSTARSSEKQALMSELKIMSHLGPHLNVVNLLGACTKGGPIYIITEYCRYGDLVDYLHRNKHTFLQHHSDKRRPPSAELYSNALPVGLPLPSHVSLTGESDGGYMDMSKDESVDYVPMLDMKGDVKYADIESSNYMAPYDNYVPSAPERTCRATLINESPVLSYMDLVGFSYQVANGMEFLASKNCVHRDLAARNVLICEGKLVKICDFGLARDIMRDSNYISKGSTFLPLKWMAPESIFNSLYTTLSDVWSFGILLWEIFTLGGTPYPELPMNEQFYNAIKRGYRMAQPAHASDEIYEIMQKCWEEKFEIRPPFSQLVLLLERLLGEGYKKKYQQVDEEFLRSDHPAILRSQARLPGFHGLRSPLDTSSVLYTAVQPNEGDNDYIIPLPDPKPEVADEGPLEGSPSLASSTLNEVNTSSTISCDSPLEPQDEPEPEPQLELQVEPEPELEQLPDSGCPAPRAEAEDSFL

Compound | inhibition at 0.1 µM (EphA2(h)) [%] | inhibition at 1 µM (EphA2(h)) [%] | inhibition at 0.1 µM (Lck(h)) [%] | inhibition at 1 µM (Lck(h)) [%] | IC50 [1] [nM] | inhibition at 0.1 µM (Flt4(h)) [%] | inhibition at 1 µM (Flt4(h)) [%] | inhibition at 0.1 µM (Hck(h)) [%] | inhibition at 1 µM (Hck(h)) [%] | IC50 (PDGFR β tyrosine kinase) [nM] | inhibition at 0.1 µM (PTK5(h)) [%] | inhibition at 1 µM (PTK5(h)) [%] | IC50 (mNFS-60) [nM]
C[C@H](Nc1cncc(Cl)n1)c1cccc(NC(=O)c2cccc(C(F)(F)F)c2)c1 [Compound 114, (S)—N-(3-(1-(6-chloropyrazin-2-ylamino)ethyl)phenyl)-3-(trifluoromethyl)benzamide] | 96 | 101 | 53 | 90 | < 1000 | 92 | 99 | 74 | 102 | < 100 | 98 | 100 | < 1000
C[C@H](Nc1cncc(-c2cccc(N3CCOCC3)c2)n1)c1cccc(NC(=O)c2cccc(C(F)(F)F)c2)c1 [Compound 149] | 96 | 102 | 68 | 95 | < 1000 | 96 | 99 | 94 | 100 | < 100 | 95 | 100 | < 1000
Cc1cccc(C(=O)Nc2ccc(C)c([C@H](C)Nc3cncc(Cl)n3)c2)c1 [Compound 168] | 102 | 103 | 85 | 98 |  | 96 | 97 | 96 | 101 |  | 100 | 100 | 
Cc1cccc(C(=O)Nc2cccc([C@H](C)Nc3cncc(-c4cccc(N5CCOCC5)c4)n3)c2)c1 [Compound 147] | 97 | 102 | 50 | 89 | < 100 | 100 | 99 | 90 | 100 | < 100 | 94 | 100 | < 200

Continued, in another order:

inhibition at 0.1 µM (EphA2(h)) [%] | inhibition at 1 µM (EphA2(h)) [%] | inhibition at 0.1 µM (Lck(h)) [%] | inhibition at 1 µM (Lck(h)) [%] | IC50 [1] [nM] | inhibition at 0.1 µM (Flt4(h)) [%] | inhibition at 1 µM (Flt4(h)) [%] | inhibition at 0.1 µM (Hck(h)) [%] | inhibition at 1 µM (Hck(h)) [%] | IC50 (PDGFR β tyrosine kinase) [nM] | inhibition at 0.1 µM (PTK5(h)) [%] | inhibition at 1 µM (PTK5(h)) [%] | Compound | IC50 (mNFS-60) [nM]
87 | 102 | 45 | 84 | < 100 | 98 | 97 | 64 | 95 | < 1000 | 91 | 99 | Cc1cccc(C(=O)Nc2cccc([C@H](C)Nc3cncc(-c4ccc(S(N)(=O)=O)cc4)n3)c2)c1 [Compound 77] | < 200
80 | 99 | 24 | 77 | < 100 | 95 | 99 | 55 | 82 | < 100 | 88 | 96 | Cc1cccc(C(=O)Nc2cccc([C@H](C)Nc3cncc(-n4ccnc4)n3)c2)c1 [Compound 143, (S)—N-(3-(1-(6-(1H-imidazol-1-yl)pyrazin-2-ylamino)ethyl)phenyl)-3-methylbenzamide] | < 200
24 | 93 | 73 | 96 | < 100 | 100 | 100 | 84 | 99 | < 100 | 99 | 100 | Cc1cccc(C(=O)Nc2cccc([C@H](C)Nc3cncc(-c4ccc(N5CCN(C)CC5)cc4)n3)c2)c1 [Compound 129] | < 200
69 | 99 | 0 | 16 | < 100 | 95 | 100 | 23 | 84 | < 100 | 80 | 98 | Cc1cccc(C(=O)Nc2cccc([C@H](C)Nc3cncc(C(N)=O)n3)c2)c1 [Compound 133, (S)-6-(1-(3-(3-methylbenzamido)phenyl)ethylamino)pyrazine-2-carboxamide] | < 200
93 | 102 | 95 | 97 | < 100 | 96 | 99 | 96 | 99 | < 100 | 99 | 100 | C[C@H](Nc1cncc(-c2ccc(N3CCN(C)CC3)cc2)n1)c1cccc(NC(=O)c2cccc(C(F)(F)F)c2)c1 [Compound 148] | < 200
